Here are results for 3 compounds from US4604234A, “Protein having cell growth stimulating action, composition thereof and method for producing the same” (priority 1983, dated 1986).

Where two headings read alike, the source gives them in different places.

In assay [1] the test system is BHK-21 cells. Description: Effects of WHS on BHK-21 cells in the presence of steroids. It counts as cell-based, hamster. To be noted: steroid 50 μg/ml alone.
Assay [2] concerns BHK-21 cells. Briefly: Inhibitory effects of steroids on BHK-21 cells. It counts as cell-based, hamster. To be noted: for activity at 0.5 µg/mL / activity at 1 µg/mL / activity at 5 µg/mL / activity at 25 µg/mL / activity at 50 µg/mL: Mesocricetus auratus, read-out: % of control cell numbers.
Assay [3] has as its system human cutaneous fibroblasts. The following applies: listed in descending order of inhibition; cited from earlier work.
Setting [4] is: BHK-21, 48 h, 0.5 μg/ml, 2 days.
Setting [5] is: BHK-21, 48 h, 1.0 μg/ml, 2 days.
Where [6] appears, read: BHK-21, 48 h, 5.0 μg/ml, 2 days.
Setting [7] is: BHK-21, 48 h, 25.0 μg/ml, 2 days.
The mark [8] stands for this setting: BHK-21, 48 h, 50.0 μg/ml, 2 days.
[9] abbreviates: BHK-21, 96 h, 0.5 μg/ml, 4 days.
Setting [10] is: BHK-21, 96 h, 1.0 μg/ml, 4 days.
Setting [11] is: BHK-21, 96 h, 5.0 μg/ml, 4 days.
Setting [12] is: BHK-21, 96 h, 25.0 μg/ml, 4 days.
Where [13] appears, read: BHK-21, 96 h, 50.0 μg/ml, 4 days.
The mark [14] stands for this setting: BHK-21, 144 h, 0.5 μg/ml, 6 days.
Where [15] appears, read: BHK-21, 144 h, 1.0 μg/ml, 6 days.
Where [16] appears, read: BHK-21, 144 h, 5.0 μg/ml, 6 days.
Where [17] appears, read: BHK-21, 144 h, 25.0 μg/ml, 6 days.
Where [18] appears, read: BHK-21, 144 h, 50.0 μg/ml, 6 days.

As to `C[C@@H]1C[C@H]2[C@@H]3CCC4=CC(=O)C=C[C@]4(C)[C@@]3(F)[C@@H](O)C[C@]2(C)[C@@]1(O)C(=O)CO` [Dexamethasone, dexamethasone], the cell numbers in the assay on BHK-21 cells [1] (2nd day) is 0.87 × 10^5 cells/dish; with BHK-21 cells [1] (4th day), 1.28 × 10^5 cells/dish; in the assay on BHK-21 cells [2] (0.5 μg/ml, 2 days), 0.92 × 10^5 cells/dish; in the assay with BHK-21 cells [2] (0.5 μg/ml, 4 days), 2.32 × 10^5 cells/dish; in the assay with BHK-21 cells [2] (0.5 μg/ml, 6 days), 2.51 × 10^5 cells/dish; in the assay with BHK-21 cells [2] (1.0 μg/ml, 2 days), 0.87 × 10^5 cells/dish. For the same compound, the cell numbers in the assay on BHK-21 cells [2] (1.0 μg/ml, 4 days) was 2.31 × 10^5 cells/dish; in the assay on BHK-21 cells [2] (1.0 μg/ml, 6 days) it was 2.54 × 10^5 cells/dish; in the assay with BHK-21 cells [2] (5.0 μg/ml, 2 days) it was 0.84 × 10^5 cells/dish; with BHK-21 cells [2] (5.0 μg/ml, 4 days), 2.22 × 10^5 cells/dish; in the assay on BHK-21 cells [2] (5.0 μg/ml, 6 days), 2.57 × 10^5 cells/dish; in the assay with BHK-21 cells [2] (25.0 μg/ml, 2 days), 0.71 × 10^5 cells/dish. Moreover, the cell numbers in the assay on BHK-21 cells [2] (25.0 μg/ml, 4 days) is given as 1.71 × 10^5 cells/dish; with BHK-21 cells [2] (25.0 μg/ml, 6 days) it was 2.33 × 10^5 cells/dish; in the assay with BHK-21 cells [2] (50.0 μg/ml, 2 days), 0.62 × 10^5 cells/dish; in the assay with BHK-21 cells [2] (50.0 μg/ml, 4 days), 1.24 × 10^5 cells/dish; with BHK-21 cells [2] (50.0 μg/ml, 6 days), 1.84 × 10^5 cells/dish. Further, the activity at 0.5 µg/mL in the assay on BHK-21 cells [2] (setting [4]) was found to be 94.8%; in the assay on BHK-21 cells [2] (setting [9]), 87.2%; in the assay with BHK-21 cells [2] (setting [14]), 97.3%. For the same compound, the activity at 1 µg/mL in the assay on BHK-21 cells [2] (setting [5]) was determined as 89.7%; with BHK-21 cells [2] (setting [10]), 86.8%; in the assay with BHK-21 cells [2] (setting [15]), 98.4%. For the same compound, the results for the activity at 5 µg/mL in the assay with BHK-21 cells [2] (setting [6]), in the assay on BHK-21 cells [2] (setting [11]) and in the assay on BHK-21 cells [2] (setting [16]) were 86.6%, 83.5% and 99.6%, respectively. Moreover, the activity at 25 µg/mL with BHK-21 cells [2] (setting [7]) amounted to 73.2%; with BHK-21 cells [2] (setting [12]) it was 64.3%; with BHK-21 cells [2] (setting [17]), 90.3%. The activity at 50 µg/mL in the assay with BHK-21 cells [2] (setting [8]) worked out at 63.9%; in the assay on BHK-21 cells [2] (setting [13]) it was 46.6%; in the assay with BHK-21 cells [2] (setting [18]) it was 71.3%.
Turning to `C[C@]12C=CC(=O)C=C1CC[C@@H]1[C@@H]2[C@@H](O)C[C@@]2(C)[C@H]1CC[C@]2(O)C(=O)CO` [Prednisolone, prednisolone], the cell numbers in the assay with BHK-21 cells [1] (2nd day) is recorded as 0.78 × 10^5 cells/dish; in the assay with BHK-21 cells [1] (4th day) it was 0.94 × 10^5 cells/dish; in the assay with BHK-21 cells [2] (0.5 μg/ml, 2 days), 1.20 × 10^5 cells/dish; in the assay with BHK-21 cells [2] (0.5 μg/ml, 4 days) it was 2.43 × 10^5 cells/dish; in the assay with BHK-21 cells [2] (0.5 μg/ml, 6 days), 2.51 × 10^5 cells/dish; in the assay with BHK-21 cells [2] (1.0 μg/ml, 2 days), 1.20 × 10^5 cells/dish. Also, the cell numbers is listed as 2.45 × 10^5 cells/dish with BHK-21 cells [2] (1.0 μg/ml, 4 days); 2.50 × 10^5 cells/dish in the assay with BHK-21 cells [2] (1.0 μg/ml, 6 days); 1.09 × 10^5 cells/dish with BHK-21 cells [2] (5.0 μg/ml, 2 days); 2.33 × 10^5 cells/dish with BHK-21 cells [2] (5.0 μg/ml, 4 days); 2.48 × 10^5 cells/dish in the assay with BHK-21 cells [2] (5.0 μg/ml, 6 days); 0.85 × 10^5 cells/dish in the assay on BHK-21 cells [2] (25.0 μg/ml, 2 days). Besides, the cell numbers with BHK-21 cells [2] (25.0 μg/ml, 4 days) is on record as 1.49 × 10^5 cells/dish; in the assay with BHK-21 cells [2] (25.0 μg/ml, 6 days), 1.91 × 10^5 cells/dish; with BHK-21 cells [2] (50.0 μg/ml, 2 days), 0.73 × 10^5 cells/dish; with BHK-21 cells [2] (50.0 μg/ml, 4 days) it was 1.01 × 10^5 cells/dish; in the assay on BHK-21 cells [2] (50.0 μg/ml, 6 days) it was 0.98 × 10^5 cells/dish. Further, the activity at 0.5 µg/mL was determined as 91.6% in the assay with BHK-21 cells [2] (setting [4]), 89.3% in the assay on BHK-21 cells [2] (setting [9]) and 94.7% in the assay with BHK-21 cells [2] (setting [14]). Also, the activity at 1 µg/mL is 91.6% in the assay with BHK-21 cells [2] (setting [5]), 90.1% in the assay on BHK-21 cells [2] (setting [10]) and 94.3% with BHK-21 cells [2] (setting [15]). In addition, the activity at 5 µg/mL amounted to 83.2% with BHK-21 cells [2] (setting [6]), 85.7% in the assay on BHK-21 cells [2] (setting [11]) and 93.6% in the assay on BHK-21 cells [2] (setting [16]). The values for the activity at 25 µg/mL with BHK-21 cells [2] (setting [7]), with BHK-21 cells [2] (setting [12]) and in the assay on BHK-21 cells [2] (setting [17]) were 64.9%, 54.8% and 72.1%, respectively. For the same compound, the activity at 50 µg/mL came to 55.7% with BHK-21 cells [2] (setting [8]), 37.1% in the assay with BHK-21 cells [2] (setting [13]) and 37% in the assay with BHK-21 cells [2] (setting [18]).
With `CCCCC(=O)O[C@]1(C(=O)CO)[C@@H](C)C[C@H]2[C@@H]3CCC4=CC(=O)C=C[C@]4(C)[C@@]3(F)[C@@H](O)C[C@@]21C` [betamethasone-17-valerate], the “growth inhibition of incubated human cutaneous fibroblasts” value in assay [3] is recorded as “inhibited”.
